Measurements reported in patent US20260159512A1, “BCAT2 INHIBITORS” (AGIOS PHARMACEUTICALS, INC., priority 2021, published 2026).

Molecular target: T1, BCAT2 (Homo sapiens, UniProt O15382)
T1 sequence (O15382 28-392): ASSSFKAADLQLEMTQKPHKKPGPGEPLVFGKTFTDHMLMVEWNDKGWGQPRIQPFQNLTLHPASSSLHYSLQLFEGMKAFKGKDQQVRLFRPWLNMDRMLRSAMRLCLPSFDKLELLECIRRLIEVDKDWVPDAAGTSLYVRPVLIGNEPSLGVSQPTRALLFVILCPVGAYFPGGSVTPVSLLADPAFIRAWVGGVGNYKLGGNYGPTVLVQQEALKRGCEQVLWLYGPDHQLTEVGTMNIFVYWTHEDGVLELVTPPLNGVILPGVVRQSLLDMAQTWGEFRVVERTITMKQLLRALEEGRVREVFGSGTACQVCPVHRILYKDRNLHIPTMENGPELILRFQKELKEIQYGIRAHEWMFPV
Assay: BCAT2 in vitro enzyme inhibition assay (resazurin/diaphorase-coupled fluorescence)
Format: biochemical
Settings: average where tested multiple times
Protocol: BCAT2 In Vitro Enzyme Inhibition Assay
1.67× hBCAT2 Enzyme Mix: 0.33 μg/mL hBCAT2, 1× Buffer
2.5× Substrate Mix: 460 μM L-leucine, 420 μM α-KetoGlutarate, 10 U/mL glutamate dehydrogenase, 10 mM NAD, 30 μg/mL diaphorase, 20 μm Resazurin
BCAT2 enzyme stock solution was diluted to prepare a 1.67× hBCAT2 Enzyme Mix. 1 μL of test compound was first added to the reaction wells followed by 30 μL of 1.67× hBCAT2 Enzyme Mix and incubated at room temperature (25° C.) for one hour. Meanwhile the Substrate Mix was prepared. The reaction was initiated by the addition of 20 μL of the 2.5× Substrate Mix, bringing the final reaction mix of all components to 1×. Reactions were quenched after one hour by the addition of 25 μL of 6% SDS and reaction progress was measured via fluorescence read (Ex 540/Em 590).
Test Compound Preparation:
Test compounds were prepared at 50× final concentration in DMSO, 1 to 3 dilutions were made for 10 points. The compounds were added to the assay as a 1 to 50 dilution (1 μL in 50 μL) to yield a top assay final concentration of 100 μM, decreasing 3-fold for 10 points. Each compound dilution series test also included an assay max (1 μL DMSO Added in lieu of compound, Full Reaction Components Included) and Min (1 μL DMSO Added in lieu of compound, 30 μl of 1.67× hBCAT2 Enzyme Mix replated by 30 μL of 1× Buffer). All tests were performed in technical duplicate.
Where a compound was tested multiple times, the average value of the tests is reported.

Row | SMILES | IC50 [µM]
1 | O=C(NC1COCC(n2c(-c3ncccc3F)nc3cnc(-n4ccnn4)cc32)C1)c1ncc(C(F)F)s1 (single isomer, unassigned) [Example 145, 5-(difluoromethyl)-N-(5-(2-(3-fluoropyridin-2-yl)-6-(1H-1,2,3-triazol-1-yl)-1H-imidazo[4,5-c]pyridin-1-yl)tetrahydro-2H-pyran-3-yl)thiazole-2-carboxamide] | > 1
2 | O=C(NC1COCC(n2c(-c3ccccn3)nc3cnc(-n4ccnn4)cc32)C1)c1ncc(C(F)F)s1 (single isomer, unassigned) [Example 147, 5-(difluoromethyl)-N-(5-(2-(pyridin-2-yl)-6-(1H-1,2,3-triazol-1-yl)-1H-imidazo[4,5-c]pyridin-1-yl)tetrahydro-2H-pyran-3-yl)thiazole-2-carboxamide] | > 1
3 | CC(C)Cc1nc2cnc(-c3ccn(C(F)F)n3)cc2n1[C@H]1C[C@H](O)C[C@@H](NC(=O)c2ncc(Cl)s2)C1 (single isomer, unassigned) [Example 212] | > 1
4 | CO[C@@H]1C[C@@H](NC(=O)c2ncc(Cl)s2)C[C@@H](n2c(CC(C)C)nc3cnc(-n4nccn4)cc32)C1 (single isomer, unassigned) [Example 422] | > 1
5 | CO[C@@H]1C[C@@H](NC(=O)c2ccc(Cl)s2)C[C@@H](n2c(CC(C)C)nc3cnc(-c4ncccn4)cc32)C1 (single isomer, unassigned) [Example 438] | 0.1 to 0.5
6 | CO[C@H]1C[C@H](NC(=O)c2ncc(Cl)s2)C[C@H](n2c(-c3ccccc3F)nc3cnc(-n4nccn4)cc32)C1 (stereo in doubt) [Example 423, 5-chloro-N-((1R,3S,5S)-3-(2-(2-fluorophenyl)-6-(2H-1,2,3-triazol-2-yl)-1H-imidazo[4,5-c]pyridin-1-yl)-5-methoxycyclohexyl)thiazole-2-carboxamide] | 0.5 to 1
7 | CO[C@H]1C[C@H](NC(=O)c2ncc(Cl)s2)C[C@H](n2c(CC(C)C)nc3cnc(-c4ccccn4)cc32)C1 (stereo in doubt) [Example 425, 5-chloro-N-((1R,3S,5S)-3-(2-isobutyl-6-(pyridin-2-yl)-1H-imidazo[4,5-c]pyridin-1-yl)-5-methoxycyclohexyl)thiazole-2-carboxamide] | > 1
8 | CO[C@H]1C[C@H](NC(=O)c2ncc(Cl)s2)C[C@H](n2c(-c3ccccc3C#N)nc3cnc(-c4nc[nH]n4)cc32)C1 (stereo in doubt) [Example 445, 5-chloro-N-((1R,3S,5S)-3-(2-(2-cyanophenyl)-6-(1H-1,2,4-triazol-3-yl)-1H-imidazo[4,5-c]pyridin-1-yl)-5-methoxycyclohexyl)thiazole-2-carboxamide] | 0.1 to 0.5
9 | CC(C)Cc1nc2cnc(-c3nc[nH]n3)cc2n1[C@H]1C[C@@H](NC(=O)c2ccc(Cl)s2)CC(F)(F)C1 (stereo in doubt) [Example 453, 5-chloro-N-((1R,5S)-3,3-difluoro-5-(2-isobutyl-6-(1H-1,2,4-triazol-3-yl)-1H-imidazo[4,5-c]pyridin-1-yl)cyclohexyl)thiophene-2-carboxamide] | 0.1 to 0.5
10 | CC(C)[C@@H](N)c1nc2cnc(-c3ccccn3)cc2n1[C@@H]1CCC[C@H](NC(=O)c2ncc(Cl)s2)C1 [Example 167, N-((1S,3R)-3-(2-((R)-1-amino-2-methylpropyl)-6-(pyridin-2-yl)-1H-imidazo[4,5-c]pyridin-1-yl)cyclohexyl)-5-chlorothiazole-2-carboxamide] | 0.1 to 0.5
11 | O=C(N[C@H]1CCC[C@@H](n2c(C3CNCCO3)nc3cnc(-c4nc[nH]n4)cc32)C1)c1ncc(Cl)s1 (stereo partly drawn) [Example 174, 5-chloro-N-((1S,3R)-3-(2-(morpholin-2-yl)-6-(1H-1,2,4-triazol-3-yl)-1H-imidazo[4,5-c]pyridin-1-yl)cyclohexyl)thiazole-2-carboxamide] | > 1
12 | C[C@H]1CCCN1c1cc2c(cn1)nc(-c1ccccc1F)n2[C@@H]1CCC[C@H](NC(=O)c2ncc(Cl)s2)C1 [Example 194, 5-chloro-N-((1S,3R)-3-(2-(2-fluorophenyl)-6-((S)-2-methylpyrrolidin-1-yl)-1H-imidazo[4,5-c]pyridin-1-yl)cyclohexyl)thiazole-2-carboxamide] | 0.5 to 1
13 | COC[C@@H]1CCCN1c1cc2c(cn1)nc(-c1ccccc1F)n2[C@@H]1CCC[C@H](NC(=O)c2ncc(Cl)s2)C1 [Example 197, 5-chloro-N-((1S,3R)-3-(2-(2-fluorophenyl)-6-((S)-2-(methoxymethyl)pyrrolidin-1-yl)-1H-imidazo[4,5-c]pyridin-1-yl)cyclohexyl)thiazole-2-carboxamide] | > 1
14 | CC(C)Cc1nc2cnc(-n3cc(F)cn3)cc2n1[C@H]1C[C@H](O)C[C@@H](NC(=O)c2ncc(Cl)s2)C1 [Example 222, 5-chloro-N-((1S,3R,5R)-3-(6-(4-fluoro-1H-pyrazol-1-yl)-2-isobutyl-1H-imidazo[4,5-c]pyridin-1-yl)-5-hydroxycyclohexyl)thiazole-2-carboxamide] | > 1
15 | CC(C)Cc1nc2cnc(-c3ccn(C)n3)cc2n1[C@H]1CCC[C@@H](NC(=O)c2ncc(Cl)s2)[C@@H]1O [Example 224, 5-chloro-N-((1R,2S,3S)-2-hydroxy-3-(2-isobutyl-6-(1-methyl-1H-pyrazol-3-yl)-1H-imidazo[4,5-c]pyridin-1-yl)cyclohexyl)thiazole-2-carboxamide] | > 1
16 | CC(C)Cc1nc2cnc(-c3ccn[nH]3)cc2n1[C@H]1CCC[C@@H](NC(=O)c2ncc(Cl)s2)[C@@H]1O [Example 226, 5-chloro-N-((1R,2S,3S)-2-hydroxy-3-(2-isobutyl-6-(1H-pyrazol-5-yl)-1H-imidazo[4,5-c]pyridin-1-yl)cyclohexyl)thiazole-2-carboxamide] | > 1
17 | CC(C)Cc1nc2cnc(-n3nccn3)cc2n1[C@H]1CCC[C@@H](NC(=O)c2ncc(Cl)s2)[C@@H]1O [Example 228, 5-chloro-N-((1R,2S,3S)-2-hydroxy-3-(2-isobutyl-6-(2H-1,2,3-triazol-2-yl)-1H-imidazo[4,5-c]pyridin-1-yl)cyclohexyl)thiazole-2-carboxamide] | > 1
18 | CC(=O)N1CC(NC(=O)c2ccc(Br)s2)CC(n2c(-c3ccccn3)nc3ccc(-c4nnco4)cc32)C1 (stereo not drawn) [Example 285, N-(5-(6-(1,3,4-oxadiazol-2-yl)-2-(pyridin-2-yl)-1H-benzo[d]imidazol-1-yl)-1-acetylpiperidin-3-yl)-5-bromothiophene-2-carboxamide] | ≤ 0.1
19 | O=C(N[C@H]1CCC[C@@H](n2c(-c3ccccc3F)nc3cnc(-n4ccccc4=O)cc32)C1)c1ncc(Cl)s1 [Example 357, 5-chloro-N-((1S,3R)-3-(2-(2-fluorophenyl)-6-(2-oxopyridin-1(2H)-yl)-1H-imidazo[4,5-c]pyridin-1-yl)cyclohexyl)thiazole-2-carboxamide] | 0.5 to 1
20 | CC(O)Cc1nc2cnc(-c3ccccn3)cc2n1[C@@H]1CCC[C@H](NC(=O)c2ncc(Cl)s2)C1 (stereo partly drawn) [Example 360, 5-chloro-N-((1S,3R)-3-(2-(2-hydroxypropyl)-6-(pyridin-2-yl)-1H-imidazo[4,5-c]pyridin-1-yl)cyclohexyl)thiazole-2-carboxamide] | > 1
21 | CC(C)Cc1nc2cnc(-c3ncc[nH]3)cc2n1[C@@H]1CCC[C@H](NC(=O)c2ncc(Cl)s2)C1 [Example 361, N-((1S,3R)-3-(6-(1H-imidazol-2-yl)-2-isobutyl-1H-imidazo[4,5-c]pyridin-1-yl)cyclohexyl)-5-chlorothiazole-2-carboxamide] | ≤ 0.1
